Data reported in patent US20230406825A1, “COMPOUNDS, COMPOSITIONS THEREOF, AND METHODS FOR TREATING ER+ BREAST CANCER” (The Board of Regents of The University of Texas System, priority 2020, published 2023).
“Also recorded” adds a separate entry of the source.

How the values were obtained:
[1] = system: ER− breast cancer cell lines (triple negative breast cancer cell line); test: Cell Titer-Glo dose dependent viability assay, ER- breast cancer cell lines; assay type: cell-based
Method: (§1) To measure the effects of TC-E 5008 on cell viability, breast cancer cells were seeded in 96-well plates (4×10^3 cells/well) in RPMI medium containing 10% fetal bovine serum. After an overnight incubation, cells were treated with varying concentrations of TC-E 5008 or other mutant IDH1 inhibitors for 72 hours. Viability was measured using Cell Titer-Glo Luminescent Cell Viability Assay (Promega) in 96-well, flat, clear-bottom, opaque-wall micro plates according to manufacturer's protocol. IC50 was less than […] in ER+ breast cancer cell lines and greater than […] in ER− breast cancer cell lines, as shown in the Figures.
(§2) A compound having a structure in accordance with Formula II (sometimes referred to herein as “TC-E 5008”) was selected for validation with an integrated confidence score of 1362.6. Three commonly used ER-positive breast cancer cell lines MCF-7, ZR-75 and T-47D were used for in vitro validation.

[2] = system: ER+ breast cancer cell lines (MCF-7, ZR-75 and T-47D); test: Cell Titer-Glo dose dependent viability assay, ER+ breast cancer cell lines; assay type: cell-based
Method: as §1, §2

[3] = system: ER-positive breast tumors samples; test: Patient-derived explant (PDE) ex vivo culture of primary breast tumors, Ki-67 staining; assay type: cell-based, human
Method: Excised tissue samples were processed and cultured ex vivo. De-identified tumors were obtained from the University of Texas Southwest Tissue Repository after institutional review board approval. Briefly, tumor samples were incubated on gelatin sponges for 24 hours in culture medium containing 10% fetal bovine serum (hereafter “FBS”), followed by treatment with either vehicle, 10 μM TC-E 5008 for 72 hours. Representative tissues were fixed in 10% formalin at 4° C. overnight and subsequently processed into paraffin blocks. The sections were then processed for immunohistochemical analysis.
In order to further validate TC-E 5008, an ex vivo culture model of primary breast tumors was used—which allows for the validation of drugs on breast tumors in their native tissue architecture. Specifically, surgically resected breast tissues were sliced into small pieces and grown ex vivo for short term on a gelatin sponge in the absence or presence of desired compound (see FIG. 4). In order to test TC-E 5008 in a variety of ER-positive tumors, estrogen receptor positivity was the only inclusion criteria used for the breast tumor samples.

[4] = ER-positive tumor explants, 10 μM, 72 hours
[5] = ER-positive tumor explants, 10 μM, 72 hours, versus untreated controls

IC50 ([1]; ER− breast cancer cell lines, 72 hours, Cell Titer-Glo): > 10 µM
IC50 ([2]; ER+ breast cancer cell lines, 72 hours, Cell Titer-Glo): < 2 µM
morphological changes in the patient tissues ([3]; treated tissues compared to controls): did not observe morphological changes
Structure (SMILES): Cc1cc(Cc2ccccc2)n(O)c(=O)c1 [TC-E 5008]
activity on proliferation ([1]; triple negative breast cancer cell line, FIG. 2): showed less activity
anti-proliferative activity / proliferation ([2]; ER-positive lines MCF-7, ZR-75 and T-47D, FIG. 1, 8, 9): anti-proliferative activity; also recorded: blocked proliferation of all three ER-positive breast cancer cell lines
patients showing a reduction in Ki-67 staining (Partial responders) [3, 4]: 3/10
patients showing a significant reduction (Complete responders) [3, 4]: 4/10
patients with decreased proliferation (Ki-67 staining) [3, 4]: 7/10
reduction in Ki-67 staining, Complete responders [3, 5]: 40-95%
reduction in Ki-67 staining, Partial responders [3, 5]: 0-25%
tumor tissues showing an increase in proliferation (Non-responders) ([3]; compared to untreated controls, FIG. 7): Three
response rate ([3]; limited cohort of 10 ER-positive tumors): 40%
proliferative indices ([3]; primary tumor explants cultured ex vivo, 10 μM, 72 hour): significant decrease in proliferative indices
